What was measured:
Assay type in all cases: in vivo
Apera spica-venti = assay: Pre-emergence test, weed control; conditions: 3 weeks after treatment, rating 0-100 (100=death), Table 1
Method in brief: (§1)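 Visual 0–100 rating, three weeks after treatment, where 0 equals untreated sown soil and 100 means plant death. Sown horticultural loam received an aqueous dilution of acetone solution (0.4% w/w alkylphenol/ethylene oxide condensate) at 15–240 g/ha, 900 l/ha spray volume.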

Poa annua = assay: Pre-emergence test, weed control; conditions: 3 weeks after treatment, rating 0-100 (100=death), Table 1
Method in brief: as §1

Galium aparine [1] = assay: Pre-emergence test, weed control; conditions: 3 weeks after treatment, rating 0-100 (100=death), Table 1
Method in brief: as §1

Polygonum convolvulus = assay: Pre-emergence test, weed control; conditions: 3 weeks after treatment, rating 0-100 (100=death), Table 1
Method in brief: as §1

Stellaria media [2] = assay: Pre-emergence test, weed control; conditions: 3 weeks after treatment, rating 0-100 (100=death), Table 1
Method in brief: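 Herbicidal effect was scored visually on a 0–100 scale (100 = death, 0 = untreated-like) three weeks after treatment. Soil was horticultural loam sprayed just after sowing with aqueous-diluted acetone/0.4% TRITON X-155 formulations at 15–240 g a.i./ha (900 L/ha).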

Setaria viridis = assay: Pre-emergence test, weed control; conditions: 3 weeks after treatment, rating 0-100 (100=death), Table 1
Method in brief: as §1

Matricaria inodora [3] = assay: Pre-emergence test, weed control; conditions: 3 weeks after treatment, rating 0-100 (100=death), Table 1
Method in brief: as §1

Lamium purpureum [4] = assay: Pre-emergence test, weed control; conditions: 3 weeks after treatment, rating 0-100 (100=death), Table 1
Method in brief: as §1

Veronica persica = assay: Pre-emergence test, weed control; conditions: 3 weeks after treatment, rating 0-100 (100=death), Table 1
Method in brief: as §1

Alopecurus myosuroides = assay: Pre-emergence test, weed control; conditions: 3 weeks after treatment, rating 0-100 (100=death), Table 1
Method in brief: as §1

Lolium perenne = assay: Pre-emergence test, weed control; conditions: 3 weeks after treatment, rating 0-100 (100=death), Table 1
Method in brief: as §1

Galium aparine [5] = assay: Post-emergence test, weed control; conditions: 2–4 weeks after treatment, rating 0-100 (100=death), Table 5
Experimental: (§2) These acetone solutions are diluted with water and the resulting formulations applied at dosage levels equivalent of about 0.030 to 0.240 kg per hectare of test compound per pot. After spraying the plants are placed an greenhouse benches and are cared for in the usual manner, commensurate with conventional greenhouse practices. From 2 to 4 weeks after treatment, the seedling plants are examined and rated according to the rating system provided above. A rating 0 indicates growth as untreated control, a rating 100 indicates death.

Stellaria media [6] = assay: Post-emergence test, weed control; conditions: 2–4 weeks after treatment, rating 0-100 (100=death), Table 5
Experimental: as §2

Matricaria inodora [7] = assay: Post-emergence test, weed control; conditions: 2–4 weeks after treatment, rating 0-100 (100=death), Table 5
Experimental: as §2

Lamium purpureum [8] = assay: Post-emergence test, weed control; conditions: 2–4 weeks after treatment, rating 0-100 (100=death), Table 5
Experimental: as §2

HORVW = assay: Pre-emergence test, selectivity; conditions: 3 weeks after treatment, rating 0-100 (100=death), Table 2
Method in brief: as §1

[9] = tested on: Hordeum vulgare variety “Mammut”; assay: Pre-emergence test, selectivity; conditions: 3 weeks after treatment, rating 0-100 (100=death), Table 2
Method in brief: as §1

[10] = tested on: Triticum aestivum variety “Kanzler”; assay: Pre-emergence test, selectivity; conditions: 3 weeks after treatment, rating 0-100 (100=death), Table 2
Method in brief: as §1

[11] = tested on: Triticum aestivum variety “Monopol”; assay: Pre-emergence test, selectivity; conditions: 3 weeks after treatment, rating 0-100 (100=death), Table 2
Method in brief: as §1

wheat = assay: Post-emergence test, tolerance in wheat; conditions: post-emergence
Experimental: as §2

FC(F)(F)c1ccc(-c2nccc(Oc3cccc(C(F)(F)F)c3)n2)cc1 [TTP, 4-(3-trifluoromethylphenoxy)-2-(4-trifluoromethyl-phenyl)-pyrimidine]
25: HORVW rating (Selectivity) (HORVW; 0.030 kg/ha)
15: ALOMY weed control rating (Alopecurus myosuroides; 0.015 kg/ha) | TRZAWM rating (Selectivity) ([11]; 0.240 kg/ha)
55: HORVW rating (Selectivity) (HORVW; 0.240 kg/ha)
90: ALOMY weed control rating (Alopecurus myosuroides; 0.060 kg/ha) | STEME weed control rating (Stellaria media [6]; 0.240 kg/ha) | MATIN weed control rating (Matricaria inodora [7]; 0.060 kg/ha) | MATIN weed control rating (Matricaria inodora [7]; 0.240 kg/ha)
5: GALAP weed control rating (Galium aparine [1]; 0.015 kg/ha) | HORVWM rating (Selectivity) ([9]; 0.015 kg/ha) | TRZAWM rating (Selectivity) ([11]; 0.120 kg/ha)
99: STEME weed control rating (Stellaria media [2]; 0.015 kg/ha) | STEME weed control rating (Stellaria media [2]; 0.030 kg/ha) | MATIN weed control rating (Matricaria inodora [3]; 0.030 kg/ha) | LAMPU weed control rating (Lamium purpureum [4]; 0.015 kg/ha) | LOLPE weed control rating (Lolium perenne; 0.030 kg/ha) | LOLPE weed control rating (Lolium perenne; 0.060 kg/ha) | LOLPE weed control rating (Lolium perenne; 0.120 kg/ha)
97: GALAP weed control rating (Galium aparine [5]; 0.060 kg/ha)
70: LOLPE weed control rating (Lolium perenne; 0.015 kg/ha) | STEME weed control rating (Stellaria media [6]; 0.120 kg/ha)
98: MATIN weed control rating (Matricaria inodora [3]; 0.015 kg/ha)
80: POLCO weed control rating (Polygonum convolvulus; 0.015 kg/ha) | GALAP weed control rating (Galium aparine [5]; 0.120 kg/ha)
85: LAMPU weed control rating (Lamium purpureum [8]; 0.030 kg/ha)
75: GALAP weed control rating (Galium aparine [1]; 0.120 kg/ha) | MATIN weed control rating (Matricaria inodora [7]; 0.120 kg/ha) | LAMPU weed control rating (Lamium purpureum [8]; 0.060 kg/ha)
60: GALAP weed control rating (Galium aparine [5]; 0.030 kg/ha) | STEME weed control rating (Stellaria media [6]; 0.060 kg/ha)
3: TRZAWK rating (Selectivity) ([10]; 0.120 kg/ha)
93: GALAP weed control rating (Galium aparine [1]; 0.240 kg/ha) | GALAP weed control rating (Galium aparine [5]; 0.240 kg/ha) | LAMPU weed control rating (Lamium purpureum [8]; 0.240 kg/ha)
40: HORVWM rating (Selectivity) ([9]; 0.120 kg/ha)
50: GALAP weed control rating (Galium aparine [1]; 0.060 kg/ha) | ALOMY weed control rating (Alopecurus myosuroides; 0.030 kg/ha) | STEME weed control rating (Stellaria media [6]; 0.030 kg/ha) | MATIN weed control rating (Matricaria inodora [7]; 0.030 kg/ha) | HORVW rating (Selectivity) (HORVW; 0.120 kg/ha)
240 g/ha: maximum tolerated dose in wheat / dose at which sufficiently selective in wheat (wheat)
100: APESV weed control rating (Apera spica-venti; 0.015 kg/ha) | APESV weed control rating (Apera spica-venti; 0.030 kg/ha) | APESV weed control rating (Apera spica-venti; 0.060 kg/ha) | APESV weed control rating (Apera spica-venti; 0.120 kg/ha) | APESV weed control rating (Apera spica-venti; 0.240 kg/ha) | POAAN weed control rating (Poa annua; 0.015 kg/ha) | POAAN weed control rating (Poa annua; 0.030 kg/ha) | POAAN weed control rating (Poa annua; 0.060 kg/ha) | POAAN weed control rating (Poa annua; 0.120 kg/ha) | POAAN weed control rating (Poa annua; 0.240 kg/ha) | POLCO weed control rating (Polygonum convolvulus; 0.030 kg/ha) | POLCO weed control rating (Polygonum convolvulus; 0.060 kg/ha) | POLCO weed control rating (Polygonum convolvulus; 0.120 kg/ha) | POLCO weed control rating (Polygonum convolvulus; 0.240 kg/ha) | STEME weed control rating (Stellaria media [2]; 0.060 kg/ha) | STEME weed control rating (Stellaria media [2]; 0.120 kg/ha) | STEME weed control rating (Stellaria media [2]; 0.240 kg/ha) | SETVI weed control rating (Setaria viridis; 0.015 kg/ha) | SETVI weed control rating (Setaria viridis; 0.030 kg/ha) | SETVI weed control rating (Setaria viridis; 0.060 kg/ha) | SETVI weed control rating (Setaria viridis; 0.120 kg/ha) | SETVI weed control rating (Setaria viridis; 0.240 kg/ha) | MATIN weed control rating (Matricaria inodora [3]; 0.060 kg/ha) | MATIN weed control rating (Matricaria inodora [3]; 0.120 kg/ha) | MATIN weed control rating (Matricaria inodora [3]; 0.240 kg/ha) | LAMPU weed control rating (Lamium purpureum [4]; 0.030 kg/ha) | LAMPU weed control rating (Lamium purpureum [4]; 0.060 kg/ha) | LAMPU weed control rating (Lamium purpureum [4]; 0.120 kg/ha) | LAMPU weed control rating (Lamium purpureum [4]; 0.240 kg/ha) | VERPE weed control rating (Veronica persica; 0.015 kg/ha) | VERPE weed control rating (Veronica persica; 0.030 kg/ha) | VERPE weed control rating (Veronica persica; 0.060 kg/ha) | VERPE weed control rating (Veronica persica; 0.120 kg/ha) | VERPE weed control rating (Veronica persica; 0.240 kg/ha) | ALOMY weed control rating (Alopecurus myosuroides; 0.120 kg/ha) | ALOMY weed control rating (Alopecurus myosuroides; 0.240 kg/ha) | LOLPE weed control rating (Lolium perenne; 0.240 kg/ha)
92: LAMPU weed control rating (Lamium purpureum [8]; 0.120 kg/ha)
22: HORVWM rating (Selectivity) ([9]; 0.030 kg/ha)
10: HORVW rating (Selectivity) (HORVW; 0.015 kg/ha) | TRZAWK rating (Selectivity) ([10]; 0.240 kg/ha)
30: GALAP weed control rating (Galium aparine [1]; 0.030 kg/ha) | HORVW rating (Selectivity) (HORVW; 0.060 kg/ha) | HORVWM rating (Selectivity) ([9]; 0.060 kg/ha)
45: HORVWM rating (Selectivity) ([9]; 0.240 kg/ha)
1: TRZAWM rating (Selectivity) ([11]; 0.060 kg/ha)
